Data: PubChem BioAssay AID2060484 (Molecular Pharmacology Branch, DTP, NCI, 2025)

Test system: SUM149PT spheroids with HUVEC/MSC, viability
Experiment: Anticancer human tumor SUM149PT cell line growth inhibition [GQUAD];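 further: spheroids exposed to drugs for seven days before readout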;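 on viability, T/C: percent viability relative to DMSO vehicle control taken as 100%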
Conditions: for IC50: curve of first compound; for viability, T/C: stronger effect = lower value
Description: DNA G-quadruplex Stabilizer Agents in Combinations in Complex Spheroids
A high-throughput screen of multi-cell type tumor spheroids was designed to identify active combinations of DNA G-quadruplex stabilizer agents and targeted small molecules. Complex spheroids include a stromal component modeled by human endothelial cells (HUVEC) and fibroblasts modeled by human mesenchymal stem cells (MSCs). The concentration ranges selected for each drug and investigational agent were based upon clinically achievable concentrations if the clinical Cmax of the agent was known.
Compounds. The drugs and investigational agents: pidnarulex (CX-5461; NSC782164), APTO-253 (NSC789042), BRACO-19 (NSC847499), peposertib (NSC802822), ceralasertib (NSC780249), elimusertib (NSC800525), camonsertib (NSC841442), AZD-1390 (NSC803789), olaparib (NSC753686), talazoparib (NSC767125), ART-558 (NSC835418), sotorasib (NSC818433), MRTX-1133 (NSC836407), SN-38 (NSC673596), topotecan (NSC609699), etoposide (NSC141540), doxorubicin (NSC123127), gemcitabine (NSC613327), 5-fluorouracil (NSC19893), paclitaxel (NSC125973), vemurafenib (NSC761431), panobinostat (NSC761190), R-306465 (JNJ-16241199; NSC773264), adavosertib (NSC754352), TP-3654 (NSC805149), carboplatin (NSC241240), KSQ-4279 (NSC840948), and staurosporine (NSC755774) were obtained from the National Cancer Institute (NCI) Developmental Therapeutics Program Chemical Repository (34). The FDA-approved anticancer drug set is available from the NCI Developmental Therapeutics Program. […] The stock solutions were prepared in dimethyl sulfoxide (DMSO, Sigma-Aldrich, St. Louis, MO, cat. D2650) at 800-fold the tested concentration and stored at -70 degrees C prior to their use. All drugs and investigational agents were tested over a range starting from a high concentration at or near the clinical Cmax and decreasing in half-log increments. If the clinical Cmax for an agent had not been determined, the highest concentration tested was 10 microM.
2.3 Cell Culture. All cells were maintained in an incubator at 37 degrees C and 5% CO2 with 95% humidity. The PDC lines were cultured according to standard operating procedures established by the NCI PDMR. All PDCs were thawed and cultured in Matrigel-coated flasks prepared with a working solution of 1X Ham's F-12 nutrient mix, without supplementation (Invitrogen, cat. 11765054), 100 U/mL penicillin-streptomycin (Invitrogen, cat. 15140122), and 2.5% Matrigel (Corning Inc., cat. 354248) for the first three passages. The 857933-349-R-J2-PDC line was cultured in 6C/Colon 1B media, which includes advanced DMEM/F-12 (Thermo Fisher Scientific, cat. 12634028), 10 mM HEPES (Thermo Fisher Scientific, cat. 15630080), 1X GlutaMAX supplement (Thermo Fisher Scientific, cat. 35050061), 0.1 mg/mL primocin (InvivoGen, cat. ant-pm-2), 10% defined fetal bovine serum, heat inactivated (HyClone Laboratories Inc., cat. SH30070.03HI), 50% L-WRN conditioned media (ATCC, cat. CRL-3276), 1.25 mM N-Acetyl-L-cysteine (Sigma-Aldrich, cat. A9165), 10 mM nicotinamide (Sigma-Aldrich, cat. N0636), 1X B-27 supplement (Thermo Fisher Scientific, cat. 17504044), 1X N-2 supplement (Thermo Fisher Scientific, cat. 17502048), 10 microM Y-27632 dihydrochloride (Tocris Bioscience, cat. 1254), and 50 ng/mL human EGF recombinant protein (Thermo Fisher Scientific, cat. PHG0311). The 485176-168-R4-J1-PDC line was cultured in Panc media, which includes all 6C/Colon 1B media components plus 100 ng/mL human FGF-10 (Thermo Fisher Scientific, cat. 100-26), 500 nM SB-431542 (Selleckchem, cat. S1067), and gastrin (Tocris, cat. 3006).
[…]

[1] = second compound 0.0316 µM, first compound 0.0316 µM
[2] = second compound 0.0316 µM, first compound 0.1 µM
[3] = second compound 0.0316 µM, first compound 0.316 µM
[4] = second compound 0.0316 µM, first compound 1 µM
[5] = second compound 0.0316 µM, first compound 3.16 µM
[6] = second compound 0.0316 µM, first compound 10 µM
[7] = second compound 0.1 µM, first compound 0.0316 µM
[8] = second compound 0.1 µM, first compound 0.1 µM
[9] = second compound 0.1 µM, first compound 0.316 µM
[10] = second compound 0.1 µM, first compound 1 µM
[11] = second compound 0.1 µM, first compound 3.16 µM
[12] = second compound 0.1 µM, first compound 10 µM
[13] = second compound 0.316 µM, first compound 0.0316 µM
[14] = second compound 0.316 µM, first compound 0.1 µM
[15] = second compound 0.316 µM, first compound 0.316 µM
[16] = second compound 0.316 µM, first compound 1 µM
[17] = second compound 0.316 µM, first compound 3.16 µM
[18] = second compound 0.316 µM, first compound 10 µM
[19] = second compound 1 µM, first compound 0.0316 µM
[20] = second compound 1 µM, first compound 0.1 µM
[21] = second compound 1 µM, first compound 0.316 µM
[22] = second compound 1 µM, first compound 1 µM
[23] = second compound 1 µM, first compound 3.16 µM
[24] = second compound 1 µM, first compound 10 µM
[25] = second compound 3.16 µM, first compound 0.0316 µM
[26] = second compound 3.16 µM, first compound 0.1 µM
[27] = second compound 3.16 µM, first compound 0.316 µM
[28] = second compound 3.16 µM, first compound 1 µM
[29] = second compound 3.16 µM, first compound 3.16 µM
[30] = second compound 3.16 µM, first compound 10 µM
[31] = second compound 10 µM, first compound 0.0316 µM
[32] = second compound 10 µM, first compound 0.1 µM
[33] = second compound 10 µM, first compound 0.316 µM
[34] = second compound 10 µM, first compound 1 µM
[35] = second compound 10 µM, first compound 3.16 µM
[36] = second compound 10 µM, first compound 10 µM

## CC(=O)O[C@H]1C(=O)[C@@]2(C)[C@H]([C@H](OC(=O)c3ccccc3)[C@]3(O)C[C@H](OC(=O)[C@H](O)[C@@H](NC(=O)c4ccccc4)c4ccccc4)C(C)=C1C3(C)C)[C@]1(OC(C)=O)CO[C@@H]1C[C@@H]2O + Cc1[nH]c2ccc(F)cc2c1-c1nc2c3cccnc3c3ncccc3c2[nH]1
Second compound 0.0316 µM
  IC50: < 31.6 nM
Second compound 0.1 µM
  IC50: < 31.6 nM
Second compound 0.316 µM
  IC50: < 31.6 nM
Second compound 1 µM
  IC50: < 31.6 nM
Second compound 3.16 µM
  IC50: < 31.6 nM
Second compound 10 µM
  IC50: < 31.6 nM
[1]
  viability, T/C: 31.7%
[2]
  viability, T/C: 25.7%
[3]
  viability, T/C: 21.3%
[4]
  viability, T/C: 19.2%
[5]
  viability, T/C: 19%
[6]
  viability, T/C: 23.1%
[7]
  viability, T/C: 34.9%
[8]
  viability, T/C: 24.9%
[9]
  viability, T/C: 22.7%
[10]
  viability, T/C: 19.7%
[11]
  viability, T/C: 19.3%
[12]
  viability, T/C: 25.8%
[13]
  viability, T/C: 32.2%
[14]
  viability, T/C: 25.7%
[15]
  viability, T/C: 24.2%
[16]
  viability, T/C: 18.9%
[17]
  viability, T/C: 20.8%
[18]
  viability, T/C: 26.5%
[19]
  viability, T/C: 30.2%
[20]
  viability, T/C: 27.2%
[21]
  viability, T/C: 23.1%
[22]
  viability, T/C: 17.3%
[23]
  viability, T/C: 21.5%
[24]
  viability, T/C: 26.6%
[25]
  viability, T/C: 29.8%
[26]
  viability, T/C: 28.6%
[27]
  viability, T/C: 21.5%
[28]
  viability, T/C: 18%
[29]
  viability, T/C: 20.5%
[30]
  viability, T/C: 22.9%
[31]
  viability, T/C: 28.5%
[32]
  viability, T/C: 24.9%
[33]
  viability, T/C: 20.2%
[34]
  viability, T/C: 20.7%
[35]
  viability, T/C: 22.3%
[36]
  viability, T/C: 23.1%

## CC(C)(O)C1CCC(Nc2ccc3ncc(-c4cccc(C(F)(F)F)c4)n3n2)CC1 (centres undefined) + Cc1[nH]c2ccc(F)cc2c1-c1nc2c3cccnc3c3ncccc3c2[nH]1
Second compound 0.0316 µM
  IC50: 5920 nM
Second compound 0.1 µM
  IC50: > 10000 nM
Second compound 0.316 µM
  IC50: 3810 nM
Second compound 1 µM
  IC50: 7900 nM
Second compound 3.16 µM
  IC50: 2360 nM
Second compound 10 µM
  IC50: 1910 nM
[1]
  viability, T/C: 103%
[2]
  viability, T/C: 96.5%
[3]
  viability, T/C: 80.2%
[4]
  viability, T/C: 63.9%
[5]
  viability, T/C: 44.6%
[6]
  viability, T/C: 53.3%
[7]
  viability, T/C: 90.9%
[8]
  viability, T/C: 90.4%
[9]
  viability, T/C: 84.2%
[10]
  viability, T/C: 67.4%
[11]
  viability, T/C: 51%
[12]
  viability, T/C: 55.9%
[13]
  viability, T/C: 105%
[14]
  viability, T/C: 97.7%
[15]
  viability, T/C: 85.5%
[16]
  viability, T/C: 68.8%
[17]
  viability, T/C: 43.3%
[18]
  viability, T/C: 51%
[19]
  viability, T/C: 97.4%
[20]
  viability, T/C: 96.4%
[21]
  viability, T/C: 89.2%
[22]
  viability, T/C: 68%
[23]
  viability, T/C: 47.4%
[24]
  viability, T/C: 52.9%
[25]
  viability, T/C: 95.5%
[26]
  viability, T/C: 81.5%
[27]
  viability, T/C: 85.4%
[28]
  viability, T/C: 70%
[29]
  viability, T/C: 40%
[30]
  viability, T/C: 46.3%
[31]
  viability, T/C: 99%
[32]
  viability, T/C: 87.5%
[33]
  viability, T/C: 79.7%
[34]
  viability, T/C: 59.9%
[35]
  viability, T/C: 38.5%
[36]
  viability, T/C: 43.1%
